Laboratory results published in patent publication US8901072B2, “Glycopeptide and lipoglycopeptide antibiotics with improved solubility” (The Medicines Company, priority 2009, dated 2014).
≈ marks a conversion by molar mass, not a printed value. Where “and” joins values, the source holds several entries; their conditions need not be identical. Equal entries are not always repeated. Where two headings read alike, the source gives them in different places.

Experiments:
[1] = Solubility in phosphate buffered saline; type: physicochemical; conditions: 10 mM phosphate buffered saline (0.138 M NaCl, 2.7 mM KCl), pH 7.4
Procedure: To a sample of the material of known mass were added known volumes of phosphate buffered saline until complete dissolution is observed. Suspensions were centrifuged for 5 min at 10000 rpm. […] Upon complete dissolution, the solution is diluted until the final concentration is 0.5 mg/mL to ensure that the material remains soluble over the entire range of concentrations.

S. aureus ATCC 13709 = experiment: In vitro antibacterial susceptibility (MIC, broth microdilution); type: cell-based; conditions: for MIC against S. aureus ATCC 13709, CAMHB: cation-adjusted Mueller-Hinton broth, 37° C., 18 h; for Antibacterial activity compared with oritavancin 5: deduced from the MIC data of Table 2; for MIC: Staphylococcus aureus
Procedure: Susceptibility of S. aureus strain ATCC13709 to oritavancin (5) and synthesized compounds was determined following the guidelines set by the Clinical and Laboratory Standards Institute (formerly the National Committee for Clinical Laboratory Standards) (M26-A). Compounds were serially diluted two-fold in either DMSO (Oritavancin 5) or in PBS and transferred to cation-adjusted Mueller Hinton broth (CAMHB; Becton Dickinson). 50 μL of compounds diluted in CAMHB was mixed with 100 μL of bacteria diluted in CAMHB in 96-well microtiter plates. The final number of micro-organisms in the assay was 5×10^5 c.f.u. per mL and the final concentration of DMSO in the assay, if present, was 1.25%. All solutions may contain 0.002% Tween as indicated. Assays were set up in duplicate and incubated at 37° C. for 18 h. The concentration of compound that inhibited visible growth was reported as the minimum inhibitory concentration (MIC).

[2] = system: S. aureus strain ATCC13709; experiment: Neutropenic mouse thigh infection model; type: in vivo, mice; conditions: for Recovered bacterial titers per thigh, 1 mg/kg / Recovered bacterial titers per thigh, 10 mg/kg / Recovered bacterial titers per thigh, 40 mg/kg: neutropenic mice, 24 h postinfection; for Recovered bacterial titers per thigh, 1 mg/kg: 1 mg/kg one hour after inoculation; for Recovered bacterial titers per thigh, 10 mg/kg: 10 mg/kg one hour after inoculation; for Recovered bacterial titers per thigh, 40 mg/kg: 40 mg/kg one hour after inoculation; for In vivo antibacterial efficacy compared with oritavancin: deduced from the data of Table 3
Procedure: The susceptibility of S. aureus strain ATCC13709 to oritavancin (5) and selected synthesized compounds in vivo was evaluated with the well accepted neutropenic mouse thigh infection model (Craig, W. A. et al. Journal of Antimicrobial Chemotherapy (1991), 27 (Suppl. C):29-40). Mice were made neutropenic by treatment with cyclophosphamide (150 and 100 mg/kg of body weight administered intraperitoneally 4 days and 1 day prior to infection). Mice were anesthetized briefly with approximately 4% isoflurane just prior to inoculation. The bacterial suspension (0.1 mL) was injected intramuscularly into each thigh (approximately 10^5 colony forming units (CFU)/thigh). The selected agents were administered in 10% (w/w) β-hydroxypropylcyclodextrin in water at a concentration of 10 mg/mL one hour following bacterial inoculation. The animals were humanely sacrificed by CO2 asphyxiation 24 h postinfection. The entire thigh muscle mass including the bone was homogenized and diluted in 0.9% saline and aliquots were plated on Brain-Heart Infusion agar. Following overnight incubation at 37° C., bacteria were enumerated for each thigh and expressed as log10 CFU per thigh. This was performed over three independent experiments and oritavancin (5) was used as a comparator in each.

Structure (SMILES) | Solubility (mg/mL) PBS [1] | MIC against S. aureus ATCC 13709, CAMHB + 0.002% tween (S. aureus ATCC 13709) [µg/mL] | MIC against S. aureus ATCC 13709, CAMHB + 50% human serum (S. aureus ATCC 13709) [µg/mL] | MIC against S. aureus ATCC 13709, CAMHB + 50% mouse serum (S. aureus ATCC 13709) [µg/mL] | MIC against S. aureus ATCC 13709, CAMHB (S. aureus ATCC 13709) [µg/mL] | Antibacterial activity compared with oritavancin 5 (S. aureus ATCC 13709) | Recovered bacterial titers per thigh, 1 mg/kg [2] [Log10 CFU/thigh] | Recovered bacterial titers per thigh, 10 mg/kg [2] [Log10 CFU/thigh] | Recovered bacterial titers per thigh, 40 mg/kg [2] [Log10 CFU/thigh] | In vivo antibacterial efficacy compared with oritavancin [2] | MIC against S. aureus ATCC 13709, CAMHB + 50% rat serum (S. aureus ATCC 13709; CAMHB + 50% rat serum) [µg/mL] | solubility ([1]; aqueous buffer, thermodynamic from solid, read-out: Solubility (mg/mL) PBS) [mg/mL] | MIC (S. aureus ATCC 13709; ATCC13709, 18 h, read-out: MIC against S. aureus ATCC 13709, CAMHB) [µg/mL] | MIC (S. aureus ATCC 13709; ATCC13709, read-out: MIC against S. aureus ATCC 13709, CAMHB + 0.002% tween) [µg/mL] | MIC (S. aureus ATCC 13709; ATCC13709, read-out: MIC against S. aureus ATCC 13709, CAMHB + 50% human serum) [µg/mL] | MIC (S. aureus ATCC 13709; ATCC13709, read-out: MIC against S. aureus ATCC 13709, CAMHB + 50% mouse serum) [µg/mL] | MIC (S. aureus ATCC 13709; ATCC13709, read-out: MIC against S. aureus ATCC 13709, CAMHB + 50% rat serum) [µg/mL] | Recovered bacterial titers per thigh, 1 mg/kg ([2]; 1 mg/kg) | Recovered bacterial titers per thigh, 10 mg/kg ([2]; 10 mg/kg) | Recovered bacterial titers per thigh, 40 mg/kg ([2]; 40 mg/kg)
CNC(CC(C)C)C(=O)NC1C(=O)NC(CC(N)=O)C(=O)NC2C(=O)NC3C(=O)NC(C(=O)NC(C(=O)OCC(=O)NCCCN)c4cc(O)cc(O)c4-c4cc3ccc4O)C(OC3CC(C)(N)C(O)C(C)O3)c3ccc(c(Cl)c3)Oc3cc2cc(c3OC2OC(CO)C(O)C(O)C2OC2CC(C)(NCc3ccc(-c4ccc(Cl)cc4)cc3)C(O)C(C)O2)Oc2ccc(cc2Cl)C1O (stereo not shown) [Compound 90b] | ≧100 mg/mL | 0.5 | 0.25 | 0.5 | 1 (≈ 0.524 µM) | within an order of magnitude of that of oritavancin 5 | 8.61 ± 0.16 | 6.44 ± 1.82 | 2.97 ± 2.35 |  |  |  |  |  |  |  |  |  |  | 
CNC(CC(C)C)C(=O)NC1C(=O)NC(CC(N)=O)C(=O)NC2C(=O)NC3C(=O)NC(C(=O)NC(C(=O)SCC(=O)NCCCN)c4cc(O)cc(O)c4-c4cc3ccc4O)C(OC3CC(C)(N)C(O)C(C)O3)c3ccc(c(Cl)c3)Oc3cc2cc(c3OC2OC(CO)C(O)C(O)C2OC2CC(C)(NCc3ccc(-c4ccc(Cl)cc4)cc3)C(O)C(C)O2)Oc2ccc(cc2Cl)C1O (stereo not shown) [Compound 93] | ≧100 mg/mL | 0.125 | 0.25 | 1 | 0.5 (≈ 0.26 µM) | within an order of magnitude of that of oritavancin 5 | 8.53 ± 0.49 | 4.45 ± 1.68 | 4.18 ± 1.70 | within the same order of magnitude than oritavancin itself |  |  |  |  |  |  |  |  |  | 
CNC(CC(C)C)C(=O)NC1C(=O)NC(CC(N)=O)C(=O)NC2C(=O)NC3C(=O)NC(C(=O)NC(C(=O)OCC[N+](C)(C)C)c4cc(O)cc(O)c4-c4cc3ccc4O)C(OC3CC(C)(N)C(O)C(C)O3)c3ccc(c(Cl)c3)Oc3cc2cc(c3OC2OC(CO)C(O)C(O)C2OC2CC(C)(NCc3ccc(-c4ccc(Cl)cc4)cc3)C(O)C(C)O2)Oc2ccc(cc2Cl)C1O (stereo not shown) [Compound 95] | ≧100 mg/mL | 0.25 | 0.5 | 2 | 1 | within an order of magnitude of that of oritavancin 5 | 8.32 ± 0.17 | 3.95 ± 1.57 | 2.96 ± 0.96 | within the same order of magnitude than oritavancin itself | 0.125 |  |  |  |  |  |  |  |  | 
CN[C@H](CC(C)C)C(=O)N[C@H]1C(=O)N[C@@H](CC(N)=O)C(=O)N[C@H]2C(=O)N[C@H]3C(=O)N[C@H](C(=O)N[C@H](C(=O)O)c4cc(O)cc(O)c4-c4cc3ccc4O)[C@H](O[C@H]3C[C@](C)(N)[C@@H](O)[C@H](C)O3)c3ccc(c(Cl)c3)Oc3cc2cc(c3O[C@@H]2O[C@H](CO)[C@@H](O)[C@H](O)[C@H]2O[C@H]2C[C@](C)(NCc3ccc(-c4ccc(Cl)cc4)cc3)[C@@H](O)[C@H](C)O2)Oc2ccc(cc2Cl)[C@H]1O [Oritavancin (5), oritavancin, reference compound] | <0.1 mg/mL |  |  |  |  |  |  |  |  |  |  | < 0.1 | 1 (≈ 0.558 µM) | 0.125 | 0.125 | 0.25 | 0.25 | 8.16 ± 0.38 Log10 CFU/thigh and 7.96 ± 0.93 Log10 CFU/thigh and 7.98 ± 0.11 Log10 CFU/thigh | 5.19 ± 1.86 Log10 CFU/thigh and 3.81 ± 1.16 Log10 CFU/thigh and 3.03 ± 0.53 Log10 CFU/thigh | 2.62 ± 0.18 Log10 CFU/thigh and 2.62 ± 0.51 Log10 CFU/thigh and 2.29 ± 0.70 Log10 CFU/thigh
